# Source: US20230321101A1, “METHODS AND USES OF HALOFUGINONE” (The Regents of the University of California, priority 2020, published 2023)
# Where “and” joins values, the source holds several entries; their conditions need not be identical. Equal entries are not always repeated. Entries after “also recorded” stand apart in the source; their conditions may differ. Where two headings read alike, the source gives them in different places.
# How the values were obtained:
# [1] = system: core HSPGs in Hep3B cells; experiment: HSPG core proteins by SDS-PAGE with mAb 3G10 in Hep3B cells; type: cell-based, human
# [2] = human, cited from earlier work
# [3] = system: hepcidin expression; experiment: Hepcidin and SMAD7 expression in HepG2 human hepatocytes; type: cell-based; details: HepG2, 24 hr incubation
# Procedure: FIG. 8A and FIG. 8B. HepG2—24 hr incubation.
# [4] = system: authentic SARS-CoV-2; type: cell-based
# [5] = system: cell surface heparan sulfate of Vero E6 cells; experiment: Heparan sulfate presentation by anti-HS mAb 10E4 staining of Vero E6 cells; type: cell-based, African green monkey; details: Vero E6, 18 h
# [6] = system: DENV-2 (Dengue); experiment: DENV-2 antiviral immunofluorescence assay in Huh7 cells; type: cell-based; details: Dengue virus, DENV2, Huh-7, read-out: EC50 DENV-2
# Procedure: (§1) Experimental Procedure. The antiviral activity of 8 dilutions of each compound was explored by adding the drug to the assay cells 2 h after infection with the different viruses. Virus and compounds were left on the cells for the entire duration of the experiment (28 h for Zika virus and 24 h for all other viruses). The cytotoxicity of the same range of concentrations of compounds was determined by LDH release assay in the same cell lines.
# (§2) Cell plating. Cells were detached and counted following SOP-RA 003 and SOP-RA 004. Count was recorded in the Cell Count Logbook, Volume 1. For each virus four plates were seeded, two for the antiviral assay and two for the cytotoxicity assay. Cells were seeded in 100 μl/well of complete media at the following densities: • Huh7: 8,000 cells/well (Dengue) • SH-SY5Y: 10,000 cells/wells (Zika) • HeLa Tzmbl: 8,000 cells/well (HIV)
# (§3) Compounds dilutions. The 22.1 mM stocks were further diluted to 1 mM in DMSO by adding 211 μl of DMSO to 10 μl of compound. Three serial dilutions were prepared in different media for different viruses/cells. For each dilution, drugs were prepared at twice the final concentration in 50 μl volume, because they are diluted to the final concentration by an equal volume of virus or media.
# (§4) Infection. Cells were infected in 50 μl of supplemented media/well at the following multiplicity of infection (MOI): • DENV-2, MOI 1 • ZIKV, MOI 5 • HIV, MOI 0.5
# (§5) After removing culture media from cells, 50 μl of virus dilution were added to all wells except Column 11 (uninfected control), where the same volume of supplemented media was added. […]
# (§6) Infectivity readout. […] The primary antibodies were detected with an Alexa-488 conjugate secondary antibody (Life Technologies, A11001), and nuclei were stained with Hoechst. Images were acquired on a CellInsight CX5 high content platform (Thermo Scientific) using a 4× objective, and percentage infection calculated using CellInsight CX5 software (infected cells/total cells×100).
# (§7) Determination of % Inhibition—IF assay. Normalized percentages of inhibition were calculated using the following formula: […]
# [7] = system: authentic SARS-CoV-2; type: cell-based; remark: listed apart in the source
# [8] = clinical; details: human, in vivo, po
# [9] = system: recombinant SARS-CoV-2 spike RBD protein binding to Caco-2 cells
# [10] = system: primary human bronchial epithelial cells; details: 10 nM and 100 nM
# [11] = system: SARS-CoV-2 spike RNA; experiment: microbe, parasite or virus in culture; type: cell-based; details: Vero E6
# [12] = system: authentic SARS-COV-2 virus; experiment: SARS-CoV-2 infected golden hamsters, intraperitoneal halofuginone; type: in vivo; details: for viral titer (TCID50 from nasal washes): 200 μg/kg intraperitoneally daily
# Procedure: FIG. 35A, FIG. 35B, and FIG. 35C.
# Six golden hamsters were dosed at 200 μg/kg with halofuginone starting at day −1, infected at day 0 with authentic SARS-COV-2 virus, and every day for five more days they received 200 μg/kg of halofuginone (FIG. 35A). Dosing was done intraperitoneally. A control group (n=6) was administered PBS. On day 3, half of the animals (n=3) in each group was sacrificed, and at day 5 the remaining animals (n=3) were sacrificed. TCID50 values as a measure of SARS-CoV-2 infectivity were measured from nasal washes at day 3 and day 5; the values were determined by viral cytopathic effect.
# [13] = system: SARS-CoV-2 spike protein pseudotyped VSV; type: cell-based
# [14] = system: recombinant SARS-CoV-2 spike RBD protein binding to Hep3B cells
# [15] = system: ZIKV (Zika virus); experiment: ZIKV antiviral immunofluorescence assay in SH-SY5Y cells; type: cell-based; details: Zika virus, read-out: EC50 ZIKV
# Procedure: as §1, §2, §3, §4, §5, §6, §7
smiles,measurement,setting,value
O=C(CC1NCCCC1O)Cn1cnc2cc(Br)c(Cl)cc2c1=O (racemic) [halofuginone],expression of core HSPGs (mAb 3G10),[1],reduced the expression of core HSPGs in a dose-dependent manner
same,"accumulation, exposure by day 15 of dosing",[2]; phase I,two- to three-fold higher exposure
same,half-life,[2]; phase I,~3 h
same,oral bioavailability,[2]; phase I,orally bioavailable
same,average Cmax,[2]; single oral administration of 0.5 mg,0.54 ng/mL
same,average Cmax,[2]; single oral administration of 3.5 mg,3.09 ng/mL
same,BMP induced expression of hepcidin,[3],inhibits BMP induced expression of hepcidin
same,SMAD7 levels,[3],increases SMAD7 levels
same,inflammation (IL6) induced expression of hepcidin,[3],inhibits inflammation (1L6) induced expression of hepcidin
same,infectious SARS-CoV-2 in supernatants (plaque assay),[4],No infectious SARS-CoV-2 could be detected; also recorded: No virus was detected
same,effect on heparan sulfate presentation (10E4 binding),[5],10E4 binding increased and did not significantly alter heparan sulfate production and presentation
same,effect on heparan sulfate presentation (10E4 binding),[5]; listed as Halofuginone,did not decrease cellular HS
same,EC50,[6],35.4 nM
same,decrease of viral RNA levels,[7],10- to 100 fold
same,intracellular viral RNA,[7],did not change
same,reduction of SARS-CoV-2 infectivity,[7],3 Log and 4 Log
same,reduction of secreted infectious virions,[7],~1000 fold
same,virus in plaque assays,"[7]; HuH 7.5, doses above 100 nM",No virus was detected in plaque assays
same,productive infection,"[7]; Huh 7.5, 100 nM",prevented productive infection
same,reduction of SARS-CoV-2 infection (viral titers),"[7]; Huh 7.5, 100 nM, pretreatment alone",~30 fold
same,Cmax,[8]; 0.5 mg,~1.3 nM
same,Cmax,[8]; 3.5 mg,~7.4 nM
same,effect on spike (RBD) protein binding,[9],dose-dependently inhibited spike protein binding
same,effect on spike (RBD) protein binding,[9]; listed as Halofuginone,reduced spike RBD protein binding
same,cell viability,[10],without affecting cell viability
same,IC50,"[11]; Severe acute respiratory syndrome coronavirus 2, Vero C1008, read-out: IC50 of SARS-CoV-2 spike intracellular mRNA levels",34.9 nM
same,reduction of SARS-CoV-2 spike intracellular mRNA levels,[11],"more than 20,000 fold"
same,viral titer (TCID50 from nasal washes),[12]; day 3 and day 5,significantly reduced viral titer by day 5 post infection
same,viral titer (TCID50 from nasal washes),"[12]; day 3 and day 5, listed as Halofuginone",potent anti-viral efficacy
same,body weight,"[12]; 200 μg/kg intraperitoneally, day -1 to day 5",no deleterious effect on body weight
same,inhibition of pseudotyped VSV infection,[13],about 30 fold
same,decrease of SARS-CoV-2 RBD binding compared to excipient control (DMSO),"[14]; 1 μM, 18 h",84%
same,inhibition of spike RBD protein binding with excess proline,[14]; 4 mM proline in the media,prevented the ability of halofuginone to inhibit spike RED protein binding
same,effect on spike (RBD) protein binding,[14]; listed as Halofuginone,reduced spike RBD protein binding
same,EC50,[15],21.8 nM
